pIC50: −log10 of the molar value. Read-outs that look alike come from different tables or passages of the source.
Legend:
[1] = target: T1, CDK4-cyclin D1 (Homo sapiens, UniProt P11802); assay: CDK4/Cyclin D1 kinase assay (32P phosphorylation of GST-Rb, filter plate); type: biochemical; settings: 30 min at 30° C.; GST-Rb substrate
T1 construct: made in house; host or cells: Sf9 insect cells (baculovirus)
Text: (§1) CDK4/Cyclin D1 Kinase Assay and CDK2/Cyclin E Kinase Assay
(§2) The assays measure phosphorylation of retinoblastoma protein (Rb) by CDK4 or CDK2 upon activation by cyclin D1 or cyclin E, respectively, through the transfer of (γ^32P)-phosphate from γ^32P-ATP in a 96-well filter plate assay.
(§3) CDK4 or CDK2 was co-expressed with cyclin D1 or cyclin E, respectively, by a baculovirus expression system in insect cells. For this, 1×10^7 Sf9 cells were coinfected with baculoviruses containing human CDK-4 or 2 and cyclin D1 or E genes and after 72 hours cells were lysed in 500 μl of a lysis buffer (50 mM HEPES (pH 7.5), 10 mM MgCl2, 1 mM DTT, 5 μg/ml of aprotinin, 5 μg/ml of leupeptin, 0.1 mM NaF, 0.2 mM phenylmethylsulfonyl fluoride (PMSF), and sodium orthovanadate. Centrifuged lysate was purified on a GST-sepharose column. Purity of the proteins was checked by SDS-PAGE followed by western blots using specific antibodies (Santacruz Biotec, USA) to CDK4 or CDK2.
(§4) GST-retinoblastoma (Rb) (aa 776-928) fusion protein is expressed in the bacteria E. coli and purified by GSH-Sepharose affinity chromatography. The GST-Rb bound to these beads served as the substrate in the assay.
(§5) Quantitation was by scintillation detection of (^32P)-GST-Rb in 96-well filter plates using Top Count scintillation 96-well counter (Packard, USA).
The CDK4 or CDK2 enzyme assay was run in 96-well format using Millipore ultiscreen filtration plates. All assay steps took place in a single filter plate (Unifilter plates, Packard, USA). The filtration wells were pre-wet with kinase buffer (100 μl/well) and the solution was then removed by the application of vacuum, with the filter plate on a vacuum manifold and the vacuum on. 50 μl of GST-Rb bound to GSH-Sepharose beads in kinase buffer (0.5 μg GST-Rb/50 μl) was added to each well and vacuum was applied to remove the buffer. […] The plate was counted in a Packard Top Count Scintillation Counter for 10 min. […]

[2] = target: T2, CDK2-cyclin E (Homo sapiens, UniProt P24941); assay: CDK2/Cyclin E kinase assay (32P phosphorylation of GST-Rb, filter plate); type: biochemical; settings: 30 min at 30° C.; GST-Rb substrate
T2 construct: made in house; host or cells: Sf9 insect cells (baculovirus)
Text: as §1, §2, §3, §4, §5
The CDK4 or CDK2 enzyme assay was run in 96-well format using Millipore ultiscreen filtration plates. All assay steps took place in a single filter plate (Unifilter plates, Packard, USA). The filtration wells were pre-wet with kinase buffer (100 μl/well) and the solution was then removed by the application of vacuum, with the filter plate on a vacuum manifold and the vacuum on. 50 μl of GST-Rb bound to GSH-Sepharose beads in kinase buffer (0.5 μg GST-Rb/50 μl) was added to each well and vacuum was applied to remove the buffer. A further 25 μl of a reaction mix containing ATP (cold+hot) and phosphatase inhibitors diluted in kinase buffer were added to each well, followed by the addition of test compound (4× final concentration in kinase buffer) or kinase buffer (control) in an additional 25 μl volume. Finally 50 μl (100 ng) of human CDK-4/D1 or CDK-2/E enzyme in kinase buffer was added to each well to initiate the reaction. The reaction was incubated for 30 min at 30° C. After the reaction was complete, vacuum was applied and the plate was washed with the wash buffer (TNEN buffer) three times. The filter plate was air-dried and placed in a Multiscreen adapter plate. To each well, 30 μl Packard Microscint-O cocktail was added and the plate was covered with a Top-Seal A film. The plate was counted in a Packard Top Count Scintillation Counter for 10 min. […]

[3] = tested on: A-549 (Lung); assay: In vitro cell proliferation, 3H-Thymidine uptake assay; type: cell-based, human; settings: cells harvested after 72 hours
Protocol: (§6) Exponentially growing cultures of […] human cancerous cell lines (Calu1 lung, A-549 lung, HT-29 colon, HL-60 Promyelocytic Leukemia, PC-3 Prostate, H-460 Lung, MDA-MB-231 Breast, MCF-7 Breast, HeLa Cervix, Colo-205 Colon, H9 Lymphoma (T Cells), U-937 Histiocytic Lymphoma (monocytes) and CaCO-2 Colon) obtained from NCCS, Pune, India were used. The in vitro cell proliferation (NCl, USA protocol) and cytotoxicity assays were carried out using standard procedures viz. ^3H-Thymidine uptake and MTS assay, respectively (For ^3H-Thymidine uptake: Cell Biology, A Laboratory Handbook, 1998, Vol 1 Ed Julio E. Celis, and For MTS assay: Promega Protocol, USA, 2000). In the ^3H-Thymidine uptake assay, cells were harvested after 72 hours onto GF/B unifilter plates (Packard, USA) using a Packard Filtermate Universal harvester and the plates were counted on a Packard TopCount 96-well liquid scintillation counter. The concentration of compound at which 50% of proliferative activity was inhibited (IC50) and the degree of toxicity of compound were calculated for representative compounds and their pharmaceutically acceptable salts described in the Examples.

[4] = tested on: Calu1 (Lung); assay: as above; type: cell-based, human; settings: cells harvested after 72 hours
Protocol: as §6

[5] = tested on: HT-29 (Colon); assay: as above; type: cell-based, human; settings: cells harvested after 72 hours
Protocol: as §6

[6] = tested on: A-549 (Lung); type: cell-based, human
Protocol: as §6

[7] = tested on: Calu1 (Lung); type: cell-based, human
Protocol: as §6

[8] = tested on: HT-29 (Colon); type: cell-based, human
Protocol: as §6

T1 sequence (P11802 whole entry): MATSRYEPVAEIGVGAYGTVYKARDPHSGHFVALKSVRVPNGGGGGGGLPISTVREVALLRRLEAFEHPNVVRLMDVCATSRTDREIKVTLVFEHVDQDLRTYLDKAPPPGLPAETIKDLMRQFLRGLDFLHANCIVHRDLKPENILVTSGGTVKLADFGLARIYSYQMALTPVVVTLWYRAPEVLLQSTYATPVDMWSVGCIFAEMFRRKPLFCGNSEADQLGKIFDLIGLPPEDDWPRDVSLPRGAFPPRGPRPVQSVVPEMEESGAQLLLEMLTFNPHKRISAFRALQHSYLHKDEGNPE
T1 sequence (P24385 whole entry partner): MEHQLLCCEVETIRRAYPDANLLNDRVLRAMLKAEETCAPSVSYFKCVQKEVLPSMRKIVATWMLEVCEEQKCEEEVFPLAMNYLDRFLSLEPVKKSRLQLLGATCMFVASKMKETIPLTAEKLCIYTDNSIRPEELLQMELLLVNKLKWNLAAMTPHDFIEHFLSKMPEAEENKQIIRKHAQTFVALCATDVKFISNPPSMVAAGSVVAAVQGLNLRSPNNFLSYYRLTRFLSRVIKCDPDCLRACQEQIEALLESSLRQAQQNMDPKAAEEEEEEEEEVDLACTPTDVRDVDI

Compound | melting point [°C] | IC50 [1] [µM] | IC50 [2] [µM] | IC50 [3] [µM] | IC50 [4] [µM] | IC50 [5] [µM] | pIC50 [6] | pIC50 [7] | pIC50 [8]
CN1CC[C@@H](c2c(O)cc(O)c3c(=O)cc(-c4cc(F)ccc4Cl)oc23)[C@@H]1CO | 253 to 254 | – | – | – | – | – | – | – | –
COc1cc(OC)c2c(=O)cc(-c3ccccc3Cl)oc2c1[C@@H]1CCN(C)[C@H]1CO | 91 to 93 | – | – | – | – | – | – | – | –
(+)-trans-2-(2-Chloro-4-nitrophenyl)-5,7-dihydroxy-8-(2-hydroxymethyl-1-methylpyrrolidin-3-yl)-chromen-4-one hydrochloride [Example 50] | – | 0.045 | 1.7 | 1.2 | < 0.3 | 1.5 | 5.92 | 5.85 | 5.96
(+)-trans-2-(2-Chlorophenyl)-5,7-dihydroxy-8-(2-hydroxymethyl-1-methyl-pyrrolidin-3-yl)-chromen-4-one hydrochloride [Example 10] | – | 0.065 | 2.8 | 0.18 | < 0.3 | 0.68 | 6.15 | 6.06 | 6.24
(−)-trans-2-(2-Chloro-4-nitrophenyl)-5,7-dihydroxy-8-(2-hydroxymethyl-1-methylpyrrolidin-3-yl)-chromen-4-one hydrochloride [Example 97-(D)] | – | 1 | > 10 | – | – | 10 | – | – | –
(−)-trans-2-(2-Chlorophenyl)-5,7-dihydroxy-8-(2-hydroxymethyl-1-methyl pyrrolidin-3-yl)-chromen-4-one hydrochloride [Example 96-(F)] | – | – | 21 | 10 | – | 25 | 4.80 | 4.79 | 4.75

Reference: US8563596B2, “Enantiomerically pure compounds for the treatment of proliferative disorders” (Piramal Enterprises Limited, priority 2006, dated 2013)
